Results from patent US12459941B2, “Tricyclic IRAK inhibitors” (Rigel Pharmaceuticals, Inc., priority 2022, dated 2025).

What was measured:
IRAK1 = IRAK1 (Homo sapiens, UniProt P51617); test: IRAK1 ADP-Glo Kinase assay; type: biochemical; conditions: 8 pt curve
IRAK4 = target: T1, IRAK4 (Homo sapiens, UniProt Q9NWZ3); test: IRAK4 ADP-Glo assay; type: biochemical; conditions: 8 pt curve; read-out: IRAK4 ADP-Glo Kinase, 8 pt
T1 construct: purchased Signalchem I12-10G-20
T1 sequence (Q9NWZ3 1-460): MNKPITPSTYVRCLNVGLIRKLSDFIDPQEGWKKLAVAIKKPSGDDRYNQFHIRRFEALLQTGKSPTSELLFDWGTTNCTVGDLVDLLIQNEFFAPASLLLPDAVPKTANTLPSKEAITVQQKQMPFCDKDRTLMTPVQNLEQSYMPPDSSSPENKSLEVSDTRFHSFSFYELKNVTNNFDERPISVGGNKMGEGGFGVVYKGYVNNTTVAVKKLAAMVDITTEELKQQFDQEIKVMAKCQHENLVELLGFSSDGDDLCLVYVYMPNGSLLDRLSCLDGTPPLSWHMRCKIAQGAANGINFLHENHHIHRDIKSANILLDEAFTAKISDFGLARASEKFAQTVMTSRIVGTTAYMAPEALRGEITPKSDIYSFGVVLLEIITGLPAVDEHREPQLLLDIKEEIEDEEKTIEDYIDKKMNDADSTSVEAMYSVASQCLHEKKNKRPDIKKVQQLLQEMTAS
Experimental: IRAK4 Kinase Enzyme (Signalchem, I12-10G-20); 0.1M DTT (Signalchem, D86-09B); MBP Substrate (Signalchem, M42-51N); ADP Glo (Promega, V9101); 1M MgCl2 (Teknova, M03304); 1M Tris-HCl pH7.4 (Teknova, T1074); BSA (Sigma (A3059); Distilled H2O
Wallac Victor2 1420 Multilabel Counter
The ADP-Glo™ reagents were thawed at ambient temperature. The Kinase Detection Reagent was prepared by mixing kinase detection buffer with the lyophilized kinase detection substrate, and set aside.
A stock volume of 5× Reaction Kinase Buffer was made with a final concentration of 100 mM MgCl2, 200 mM Tris-HCl, and 0.5 mg/ml of BSA, in distilled H2O with a final pH7.4. A 2× working stock volume of Reaction Kinase Buffer was made containing a final concentration of […].
The components of IRAK4 Enzyme were thawed on ice. Diluted IRAK4 in 1× Kinase Reaction Buffer (diluted from 2× buffer) was prepared at […]. A […] working stock ATP Assay Solution was prepared in 1× Kinase Reaction Buffer (diluted from 2× buffer).
The compound was diluted in DMSO from 250 µM in 4-fold series dilutions for 8 points. Then diluted 1:5 in 2× Reaction Buffer in a 96 well plate. 1.01 was transferred to a 384 well plate in duplicate. […] 1 μl of 1 mg/ml stock solution of MBP substrate was added NOTE: MBP can be combined with ATP mix with equal volume and then added at 2 d/well. Final reaction volume was 5 μl.
The plate was centrifuged and the reaction mixture was incubated at room temperature for 60 minutes or at 30° C. for 30 minutes.
The reaction was terminated and the remaining ATP was depleted by adding 5 μl of ADP-Glo™ Reagent. The 384-well plate was centrifuged and then the reaction mixture was incubated for another 40 minutes at ambient temperature.
10 μl of the Kinase Detection Reagent was added. The plate was centrifuged and then the reaction mixture was incubated for another 30 minutes at ambient temperature.
The 384-well reaction plate was read using the WALLAC plate reader (Luminescence 0.1s).

TNFa [1] = test: TNFa ELISA, dendritic cells, Gardiquimod stimulated; type: cell-based; conditions: Homo sapiens, Dendritic cell, 10 pt curve
TNFa [2] = test: TNFa ELISA, PBMC, Resiquimod (R848) stimulated; type: cell-based; conditions: 10 pt curve

IRAK1, sequence (P51617 whole entry): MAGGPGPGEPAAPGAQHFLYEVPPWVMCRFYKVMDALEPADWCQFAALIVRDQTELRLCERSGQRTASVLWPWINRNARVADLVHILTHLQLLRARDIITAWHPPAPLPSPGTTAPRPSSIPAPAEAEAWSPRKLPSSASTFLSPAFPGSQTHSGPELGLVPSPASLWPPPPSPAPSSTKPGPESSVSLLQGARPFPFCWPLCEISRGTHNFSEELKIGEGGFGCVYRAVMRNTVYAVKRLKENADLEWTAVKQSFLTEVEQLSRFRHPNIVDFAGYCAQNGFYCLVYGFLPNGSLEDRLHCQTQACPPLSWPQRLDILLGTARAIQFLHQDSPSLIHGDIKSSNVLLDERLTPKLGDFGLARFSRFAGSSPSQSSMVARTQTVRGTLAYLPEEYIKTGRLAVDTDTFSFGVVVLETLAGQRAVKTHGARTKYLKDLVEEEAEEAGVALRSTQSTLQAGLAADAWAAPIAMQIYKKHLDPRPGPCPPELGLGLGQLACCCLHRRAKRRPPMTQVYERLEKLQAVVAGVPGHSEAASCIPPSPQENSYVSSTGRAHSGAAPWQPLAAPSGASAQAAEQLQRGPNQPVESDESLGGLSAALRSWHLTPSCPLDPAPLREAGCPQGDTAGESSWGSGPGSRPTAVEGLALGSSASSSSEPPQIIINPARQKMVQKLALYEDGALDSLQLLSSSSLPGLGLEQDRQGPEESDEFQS

Row | IC50 (IRAK1) | IC50 (IRAK4) | EC50 (TNFa [1]) | EC50 (TNFa [2]) | Compound
1 | 1120 nM | 6.5 nM | 239 nM | 295 nM | CC[C@@H]1[C@H](F)C(=O)N[C@@H]1COc1nccc2cc3c(=O)[nH]ccc3cc12 [I-46, 6-(((2S,3S,4S)-3-ethyl-4-fluoro-5-oxopyrrolidin-2-yl)methoxy)pyrido[3,4-g]isoquinolin-1(2H)-one]
2 | 7230 nM | 8.5 nM | 148 nM | 112 nM | CCc1c[nH]c(=O)c2cc3ccnc(OC[C@@H]4CCC(=O)N4)c3cc12 [I-8, (S)-4-ethyl-6-((5-oxopyrrolidin-2-yl)methoxy)pyrido[3,4-g]isoquinolin-1(2H)-one]
3 | – | – | – | 1440 nM | CC(C)(O)C#Cc1c[nH]c(=O)c2cc3ccnc(OC[C@@H]4CCC(=O)N4)c3cc12 [I-49, (S)-4-(3-hydroxy-3-methylbut-1-yn-1-yl)-6-((5-oxopyrrolidin-2-yl)methoxy)pyrido[3,4-g]isoquinolin-1(2H)-one]
4 | 11000 nM | 1210 nM | 44000 nM | – | C#CC(C)(O)c1c[nH]c(=O)c2cc3ccnc(OC[C@@H]4CCC(=O)N4)c3cc12 (stereo partly drawn) [I-37, 4-(2-hydroxybut-3-yn-2-yl)-6-(((S)-5-oxopyrrolidin-2-yl)methoxy)pyrido[3,4-g]isoquinolin-1(2H)-one]
5 | 77.4 nM | 10 nM | – | 4 nM | CC[C@@H]1[C@H](F)C(=O)N[C@@H]1COc1nccc2cc3c(=O)[nH]cc(C(C)C)c3cc12 [I-51, 6-(((2S,3S,4S)-3-ethyl-4-fluoro-5-oxopyrrolidin-2-yl)methoxy)-4-isopropylpyrido[3,4-g]isoquinolin-1(2H)-one]
6 | 6860 nM | 14.5 nM | 419 nM | 376 nM | C=CCc1c[nH]c(=O)c2cc3ccnc(OC[C@@H]4CCC(=O)N4)c3cc12 [I-9, (S)-4-allyl-6-((5-oxopyrrolidin-2-yl)methoxy)pyrido[3,4-g]isoquinolin-1(2H)-one]
7 | – | 160 nM | 5680 nM | 4390 nM | O=C1CC[C@@H](COc2nccc3cc4c(=O)[nH]ccc4cc23)N1 [I-5, (S)-6-((5-oxopyrrolidin-2-yl)methoxy)pyrido[3,4-g]isoquinolin-1(2H)-one]
8 | 531 nM | 35 nM | 78.2 nM | 78.8 nM | CC[C@@H]1[C@H](F)C(=O)N[C@@H]1COc1nccc2cc3c(=O)[nH]cc(C#N)c3cc12 [I-47, 6-(((2S,3S,4S)-3-ethyl-4-fluoro-5-oxopyrrolidin-2-yl)methoxy)-1-oxo-1,2-dihydropyrido[3,4-g]isoquinoline-4-carbonitrile]
9 | 6490 nM | 7.8 nM | – | 75 nM | C=C(C)c1c[nH]c(=O)c2cc3ccnc(OC[C@@H]4CCC(=O)N4)c3cc12 [I-11, (S)-6-((5-oxopyrrolidin-2-yl)methoxy)-4-(prop-1-en-2-yl)pyrido[3,4-g]isoquinolin-1(2H)-one]
10 | – | 27.3 nM | – | 5650 nM | CC(=O)c1c[nH]c(=O)c2cc3ccnc(OC[C@@H]4CCC(=O)N4)c3cc12 [I-28, (S)-4-acetyl-6-((5-oxopyrrolidin-2-yl)methoxy)pyrido[3,4-g]isoquinolin-1(2H)-one]
11 | – | 2190 nM | – | – | CC(C)Cc1c[nH]c(=O)c2cc3ccnc(OC[C@@H]4CCC(=O)N4)c3cc12 [I-50, (S)-4-isobutyl-6-((5-oxopyrrolidin-2-yl)methoxy)pyrido[3,4-g]isoquinolin-1(2H)-one]
12 | – | 2400 nM | – | – | O=C1CC[C@@H](COc2nccc3cc4c(=O)[nH]cc(C5CNC5)c4cc23)N1 [I-23, (S)-4-(azetidin-3-yl)-6-((5-oxopyrrolidin-2-yl)methoxy)pyrido[3,4-g]isoquinolin-1(2H)-one]
13 | – | 5350 nM | – | 1780 nM | CC(C)(N)c1c[nH]c(=O)c2cc3ccnc(OC[C@@H]4CCC(=O)N4)c3cc12 [I-26, (S)-4-(2-aminopropan-2-yl)-6-((5-oxopyrrolidin-2-yl)methoxy)pyrido[3,4-g]isoquinolin-1(2H)-one]
14 | – | 988 nM | – | – | NC(=O)c1c[nH]c(=O)c2cc3ccnc(OC[C@@H]4CCC(=O)N4)c3cc12 [I-27, (S)-1-oxo-6-((5-oxopyrrolidin-2-yl)methoxy)-1,2-dihydropyrido[3,4-g]isoquinoline-4-carboxamide]
15 | – | 13800 nM | – | 10100 nM | CS(=O)(=O)c1c[nH]c(=O)c2cc3ccnc(OC[C@@H]4CCC(=O)N4)c3cc12 [I-48, (S)-4-(methylsulfonyl)-6-((5-oxopyrrolidin-2-yl)methoxy)pyrido[3,4-g]isoquinolin-1(2H)-one]
16 | 11300 nM | 62.7 nM | 63800 nM | 1030 nM | CC(O)c1c[nH]c(=O)c2cc3ccnc(OC[C@@H]4CCC(=O)N4)c3cc12 (stereo partly drawn) [I-36, 4-(1-hydroxyethyl)-6-(((S)-5-oxopyrrolidin-2-yl)methoxy)pyrido[3,4-g]isoquinolin-1(2H)-one]
17 | 14800 nM | 105 nM | 177 nM | 208 nM | O=C1CC[C@@H](COc2nccc3cc4c(=O)[nH]cc(CC(F)(F)F)c4cc23)N1 [I-19, (S)-6-((5-oxopyrrolidin-2-yl)methoxy)-4-(2,2,2-trifluoroethyl)pyrido[3,4-g]isoquinolin-1(2H)-one]
18 | – | 3.1 nM | 45.8 nM | 32.2 nM | O=C1CC[C@@H](COc2nccc3cc4c(=O)[nH]cc(I)c4cc23)N1 [I-6, (S)-4-iodo-6-((5-oxopyrrolidin-2-yl)methoxy)pyrido[3,4-g]isoquinolin-1(2H)-one]
19 | 12000 nM | 14.4 nM | 358 nM | 337 nM | C#Cc1c[nH]c(=O)c2cc3ccnc(OC[C@@H]4CCC(=O)N4)c3cc12 [I-18, (S)-4-ethynyl-6-((5-oxopyrrolidin-2-yl)methoxy)pyrido[3,4-g]isoquinolin-1(2H)-one]
20 | 18 nM | 5.5 nM | 3.4 nM | 2.7 nM | CC[C@@H]1[C@H](F)C(=O)N[C@@H]1COc1nccc2cc3c(=O)[nH]cc(C)c3cc12 [I-45, 6-(((2S,3S,4S)-3-ethyl-4-fluoro-5-oxopyrrolidin-2-yl)methoxy)-4-methylpyrido[3,4-g]isoquinolin-1(2H)-one]
21 | 10300 nM | 22.2 nM | – | 1660 nM | N#Cc1c[nH]c(=O)c2cc3ccnc(OC[C@@H]4CCC(=O)N4)c3cc12 [I-16, (S)-1-oxo-6-((5-oxopyrrolidin-2-yl)methoxy)-1,2-dihydropyrido[3,4-g]isoquinoline-4-carbonitrile]
22 | 11100 nM | 74.2 nM | 613 nM | 369 nM | CCCc1c[nH]c(=O)c2cc3ccnc(OC[C@@H]4CCC(=O)N4)c3cc12 [I-10, (S)-6-((5-oxopyrrolidin-2-yl)methoxy)-4-propylpyrido[3,4-g]isoquinolin-1(2H)-one]
23 | 7860 nM | 39.6 nM | 11700 nM | 203 nM | O=C1CC[C@@H](COc2nccc3cc4c(=O)[nH]cc(C5CCC5)c4cc23)N1 [I-12, (S)-4-cyclobutyl-6-((5-oxopyrrolidin-2-yl)methoxy)pyrido[3,4-g]isoquinolin-1(2H)-one]
24 | 3010 nM | 28 nM | 25600 nM | – | O=C1CC[C@@H](COc2nccc3cc4c(=O)[nH]cc(-c5cn[nH]c5)c4cc23)N1 [I-33, (S)-6-((5-oxopyrrolidin-2-yl)methoxy)-4-(1H-pyrazol-4-yl)pyrido[3,4-g]isoquinolin-1(2H)-one]
25 | – | 2540 nM | – | – | NC(=O)Cc1c[nH]c(=O)c2cc3ccnc(OC[C@@H]4CCC(=O)N4)c3cc12 [I-41, (S)-2-(1-oxo-6-((5-oxopyrrolidin-2-yl)methoxy)-1,2-dihydropyrido[3,4-g]isoquinolin-4-yl)acetamide]
